{
  "source": "paper PMC12074479",
  "about": "“Design, Synthesis, and Biological Evaluation of New Analogs of Aurein 1.2 Containing Non-Proteinogenic Amino Acids” (Molecules, 2025)",
  "key": {"in vitro": {"experiment": "in vitro", "conditions": "mouse, Mean CC50 ± SD, +Irr", "description": "(§1) An in vitro BALB 3T3 Neutral Red Uptake assay was used to determine the cytotoxicity/phototoxicity of the peptides. Cytotoxicity of peptide analogs was calculated as a percentage relative to the negative control. […] Photo irritation factor (PIF) was used to assess the phototoxic potential of the peptide analogs. The PIF factor represents the ratio between the CC50 values of dark (non-irradiated or—Irr) and irradiated (+Irr) microplates, PIF = (CC50 − Irr)/(CC50 + Irr).\n(§2) Mouse embryonic fibroblasts (BALB 3T3) were used to perform the cytotoxicity and phototoxicity tests. The tests were performed by OECD Guidelines for the Testing of Chemicals, Section 4, Test No. 432. Cells were plated at 1 × 10^4 cells/well in 96-well plates. Cells were incubated in a thermostat for 24 h. Then, the test peptides were added at various working concentrations (4–1000 μM). In the phototoxicity test, 96-well plates were irradiated with a dose of 2.4 J/cm^2 using a solar light simulator Helios-iO (SERIC Ltd., Tokyo, Japan). Cell viability was measured using the BALB 3T3 neutral red uptake test. Cytotoxicity is presented as % relative to the negative control."}, "BALB 3T3 cells": {"tested_on": "BALB 3T3 cells", "experiment": "in vitro", "description": "as §1, §2"}, "MDA-MB-231": {"tested_on": "MDA-MB-231", "experiment": "cells", "description": "(§3) The peptides were studied for antiproliferative activity with an MTT-dye reduction assay. Cell cultures were incubated with the test peptides in twofold increasing concentrations (from 2 to 500 μM) for 72 h.\n(§4) The antiproliferative activity of the peptides was determined in normal epithelial cells (MCF-12F) and tumor cells (MCF-7 and MDA-MB-231) by MTT-assay. Cells were plated 1 × 10^3 cells/100 µL/well of 96-well plates and incubated in a thermostat under standard conditions for 24 h. Cells were then incubated with the tested peptide analogs for 72 h in different concentrations (from 2 to 500 µM). The optical density of the formazan was measured at λ = 540 nm using a microplate reader. Antiproliferative activity was expressed as % from negative control. […] The statistical analysis of the results was performed using one-way ANOVA followed by Bonferroni’s post hoc test by GraphPad Prism 8 software (San Diego, CA, USA)."}, "MCF-7": {"tested_on": "MCF-7", "experiment": "cells", "description": "as §3, §4"}, "MCF-12F": {"tested_on": "MCF-12F", "experiment": "cells", "conditions": "72 h", "description": "as §3, §4"}, "[1]": {"tested_on": "Bacillus subtilis NBIMCC 3562", "conditions": "NBIMCC 3562, 24 h", "description": "(§5) The antimicrobial activity of the 7 new analogs of aurein 1.2 was evaluated by determining the MIC and MBC against Gram-positive strain Bacillus subtilis 3562 and Gram-negative strain Escherichia coli K12 407. The MIC of the newly synthesized analogs was assessed by applying a broth microdilution method, whereas their MBC was determined by using a spread plate method. All experiments were performed in triplicate.\n(§6) Bacillus subtilis NBIMCC 3562 and Escherichia coli NBIMCC K12 407 were used as test microorganisms and were purchased from the National Bank for Industrial Microorganisms and Cell Cultures (NBIMCC, Sofia, Bulgaria). Exponential cultures were obtained in Nutrient broth (NB, HiMedia, Mumbai, India) for B. subtilis NBIMCC 3562 and Luria-Bertani (LB, HiMedia, Mumbai, India) for E. coli NBIMCC K12 407, after cultivation in an incubator shaker ES-20/60 (Biosan, Latvia) at 30/37 °C for 24 h. Then, the turbidity of the microbial cultures was adjusted to the 0.5 McFarland standard using a Grant Bio DEN-1B Densitometer (Grant Instruments, Royston, UK).\n(§7) The antimicrobial activity of the obtained aurein 1.2 analogs was evaluated using the broth microdilution method, recommended by the Clinical and Laboratory Standards Institute (CLSI), to determine the minimum inhibitory concentration (MIC) of the peptides against B. subtilis NBIMCC 3562 and E. coli NBIMCC K12 407. All peptides were previously dissolved in 10% EtOH/H2O, and their 10 mg/mL stock solutions were stored at −20 °C. Bacterial cultures, previously adjusted to 0.5 McFarland standard, were incubated in the presence of different peptide concentrations (0–320 µg/mL) in 96-well polystyrene microplates (Deltalab S.L., Barcelona, Spain) at 30/37 °C for 24 h. The lowest concentration of each peptide, which inhibited bacterial growth, was considered as MIC. In addition, a drop of 20 µL of the 24 h inhibitory concentration test samples was spotted on the corresponding solid media to determine the minimum bactericidal concentration (MBC). […] All experiments were performed in triplicate."}, "[2]": {"tested_on": "Escherichia coli NBIMCC K12 407", "conditions": "K12, 24 h", "description": "as §5, §6, §7"}, "[3]": {"conditions": "SI = IC50 (normal cells)/IC50 (tumor cells), normal cells MCF-12F"}},
  "note": "Where two headings read alike, the source gives them in different places. Where a SMILES comes first, the peptide text is derived from it. [ ]: non-standard residue; d: D form. Dab = NCC[C@H](N)C(=O)O",
  "data": [
    {"smiles": "CN(C)CCCN1c2ccccc2Sc2ccc(Cl)cc21", "note": "[Chlorpromazine, reference compound]", "values": [
      {"measurement": "CC50", "setting": "in vitro", "result": "2.04 ± 0.07", "unit": "µM"},
      {"measurement": "PIF (Photo Irritation Factor)", "setting": "BALB 3T3 cells; mouse", "result": 6.06}
    ]},
    {"smiles": "COc1cccc2c1C(=O)c1c(O)c3c(c(O)c1C2=O)C[C@@](O)(C(=O)CO)C[C@@H]3O[C@H]1C[C@H](N)[C@H](O)[C@H](C)O1", "note": "[Doxorubicin, reference compound]", "values": [
      {"measurement": "IC50", "setting": "MDA-MB-231; Homo sapiens, MDA-MB-231, 72 h, read-out: Mean IC50 ± SD, MDA-MB-231", "result": "2.53 ± 0.11", "unit": "µM"},
      {"measurement": "SI, MDA-MB-231", "setting": "MDA-MB-231; [3]", "result": 0.237},
      {"measurement": "IC50", "setting": "MCF-7; Homo sapiens, MCF7, 72 h, read-out: Mean IC50 ± SD, MCF-7", "result": "0.68 ± 0.031", "unit": "µM"},
      {"measurement": "SI, MCF-7", "setting": "MCF-7; [3]", "result": 0.88},
      {"measurement": "IC50", "setting": "MCF-12F; Homo sapiens, read-out: Mean IC50 ± SD, MCF-12F", "result": "0.601 ± 0.059", "unit": "µM"}
    ]},
    {"smiles": "CC[C@H](C)[C@H](NC(=O)[C@H](CCN)NC(=O)[C@H](CCN)NC(=O)[C@@H](NC(=O)[C@@H](NC(=O)[C@H](CC(=O)O)NC(=O)[C@H](Cc1ccccc1)NC(=O)[C@H](CC(C)C)NC(=O)CN)[C@@H](C)CC)[C@@H](C)CC)C(=O)N[C@@H](C)C(=O)N[C@@H](CCC(=O)O)C(=O)N[C@@H](CO)C(=O)N[C@@H](Cc1ccccc1)C(N)=O", "note": "[EH [Dab]^7,8, Gly-Leu-Phe-Asp-Ile-Ile-Dab^7-Dab^8-Ile-Ala-Glu-Ser-Phe-NH2] (H-GLFDII[Dab][Dab]IAESF-NH2)", "values": [
      {"measurement": "MIC, Bacillus subtilis NBIMCC 3562", "setting": "[1]", "result": 160, "unit": "µg/mL"},
      {"measurement": "MIC, Escherichia coli NBIMCC K12 407", "setting": "[2]", "result": 160, "unit": "µg/mL"},
      {"measurement": "IC50", "setting": "MDA-MB-231; 72 h", "result": "164 ± 2.51", "unit": "µM"},
      {"measurement": "IC50", "setting": "MCF-7; 72 h", "result": "92.2 ± 1.8", "unit": "µM"},
      {"measurement": "IC50", "setting": "MCF-12F", "result": "168 ± 2.54", "unit": "µM"},
      {"measurement": "CC50", "setting": "in vitro", "result": "181.1 ± 1.81", "unit": "µM"},
      {"measurement": "PIF (Photo Irritation Factor)", "setting": "BALB 3T3 cells", "result": 1.11},
      {"measurement": "Toxicity compared to the parent peptide aurein 1.2", "setting": "BALB 3T3 cells; BALB 3T3 cells, fold lower toxicity", "result": "two to four times lower toxicity"}
    ]},
    {"smiles": "CC[C@H](C)[C@H](NC(=O)[C@H](CCCCN)NC(=O)[C@H](CCN)NC(=O)[C@@H](NC(=O)[C@@H](NC(=O)[C@H](CC(=O)O)NC(=O)[C@H](Cc1ccccc1)NC(=O)[C@H](CC(C)C)NC(=O)CN)[C@@H](C)CC)[C@@H](C)CC)C(=O)N[C@@H](C)C(=O)N[C@@H](CCC(=O)O)C(=O)N[C@@H](CO)C(=O)N[C@@H](Cc1ccccc1)C(N)=O", "note": "[EH [Dab]^7, Gly-Leu-Phe-Asp-Ile-Ile-Dab^7-Lys-Ile-Ala-Glu-Ser-Phe-NH2] (H-GLFDII[Dab]KIAESF-NH2)", "values": [
      {"measurement": "MBC, Bacillus subtilis NBIMCC 3562", "setting": "[1]", "result": 320, "unit": "µg/mL"},
      {"measurement": "MIC, Bacillus subtilis NBIMCC 3562", "setting": "[1]", "result": 80, "unit": "µg/mL"},
      {"measurement": "MIC, Escherichia coli NBIMCC K12 407", "setting": "[2]", "result": 80, "unit": "µg/mL"},
      {"measurement": "IC50", "setting": "MDA-MB-231; 72 h", "result": "125 ± 4.97", "unit": "µM"},
      {"measurement": "IC50", "setting": "MCF-7; 72 h", "result": "74.4 ± 3.29", "unit": "µM"},
      {"measurement": "IC50", "setting": "MCF-12F", "result": "92.1 ± 2.12", "unit": "µM"},
      {"measurement": "CC50", "setting": "in vitro", "result": "113 ± 5.57", "unit": "µM"},
      {"measurement": "PIF (Photo Irritation Factor)", "setting": "BALB 3T3 cells", "result": 1.40}
    ]},
    {"smiles": "CC[C@H](C)[C@H](NC(=O)[C@H](CCN)NC(=O)[C@H](CCCCN)NC(=O)[C@@H](NC(=O)[C@@H](NC(=O)[C@H](CC(=O)O)NC(=O)[C@H](Cc1ccccc1)NC(=O)[C@H](CC(C)C)NC(=O)CN)[C@@H](C)CC)[C@@H](C)CC)C(=O)N[C@@H](C)C(=O)N[C@@H](CCC(=O)O)C(=O)N[C@@H](CO)C(=O)N[C@@H](Cc1ccccc1)C(N)=O", "note": "[EH [Dab]^8, Gly-Leu-Phe-Asp-Ile-Ile-Lys-Dab^8-Ile-Ala-Glu-Ser-Phe-NH2] (H-GLFDIIK[Dab]IAESF-NH2)", "values": [
      {"measurement": "MBC, Bacillus subtilis NBIMCC 3562", "setting": "[1]", "result": 320, "unit": "µg/mL"},
      {"measurement": "MIC, Bacillus subtilis NBIMCC 3562", "setting": "[1]", "result": 80, "unit": "µg/mL"},
      {"measurement": "MIC, Escherichia coli NBIMCC K12 407", "setting": "[2]", "result": 80, "unit": "µg/mL"},
      {"measurement": "IC50", "setting": "MDA-MB-231; 72 h", "result": "79.7 ± 1.78", "unit": "µM"},
      {"measurement": "IC50", "setting": "MCF-7; 72 h", "result": "67.2 ± 2.57", "unit": "µM"},
      {"measurement": "IC50", "setting": "MCF-12F", "result": "68.3 ± 3.51", "unit": "µM"},
      {"measurement": "CC50", "setting": "in vitro", "result": "81.4 ± 2.34", "unit": "µM"},
      {"measurement": "PIF (Photo Irritation Factor)", "setting": "BALB 3T3 cells", "result": 1.13}
    ]}
  ]
}
